Measurements: ChEMBL document CHEMBL5380820, “Design and Discovery of Novel Cyclic Peptides as EDPs-EBP Interaction Inhibitors for the Treatment of Liver Fibrosis” (J Med Chem, 2023)
Active and inactive are the calls of the source. The rule behind the calls is not given here. Where a SMILES comes first, the peptide text is derived from it. [ ]: non-standard residue; d: D form. Aib = CC(C)(N)C(=O)O

Legend:
[1] = tested on: LX-2; assay: Antifibrotic activity against TGF-beta induced human LX2 cells assessed as inhibition of alpha-SMA expression by measuring fluorescence intensity relative to control; format: functional
[2] = tested on: LX-2; assay: Antifibrotic activity against TGF-beta induced human LX2 cells assessed as inhibition of neuraminidase activity using NA fluorogenic substrate by measuring fluorescence intensity relative to control; format: functional
[3] = tested on: LX-2; assay: Antifibrotic activity against TGF-beta induced human LX2 cells assessed as inhibition of collagen I expression by measuring fluorescence intensity relative to control; format: functional
[4] = tested on: LX-2; assay: Antifibrotic activity against TGF-beta induced human LX2 cells assessed as reduction of alpha-SMA expression measured at 10 uM for 24 hrs by measuring fluorescence intensity; format: functional, cell-based
[5] = tested on: LX-2; assay: Antifibrotic activity against TGF-beta induced human LX2 cells assessed as reduction of collagen I expression measured at 10 uM for 24 hrs by measuring fluorescence intensity; format: functional, cell-based

Row | Molecule | inhibition (INH) [1] [%] | inhibition (INH) [2] [%] | inhibition (INH) [3] [%] | Activity [4] | Activity [5] | inhibition [1] | inhibition [3]
1 | CC(C)C[C@@H]1NC(=O)[C@@H]2CCCN2C(=O)[C@H](CO)NC(=O)[C@H](C)NC(=O)[C@H](CCC(=O)O)NC(=O)[C@H](CC(=O)O)NC(=O)[C@H](CCC(N)=O)NC(=O)[C@H](C)NC(=O)[C@H](CCCCN)NC(=O)[C@@H]2CCCN2C(=O)[C@H](CO)NC(=O)CNC(=O)[C@H](C(C)C)NC(=O)[C@H](C(C)C)NC1=O (cyclo(AQDEASPLVVGSPK)) | 2.8 | 30 | 1.7 | – | – | – | –
2 | H-VVGSPSAQAEASPL-NH2 | 7.1 | 33.4 | 5.2 | Active | – | – | –
3 | H-VVGSPSAQDEASPA-NH2 | 38.7 | 54.7 | 34.6 | Active | Active | – | –
4 | CC(C)C[C@@H]1NC(=O)[C@H](C(C)C)NC(=O)[C@H](CC(C)C)NC(=O)[C@@H]2CCCN2C(=O)[C@H](CO)NC(=O)[C@H](C)NC(=O)[C@H](CCC(=O)O)NC(=O)[C@H](CC(=O)O)NC(=O)[C@H](CCC(N)=O)NC(=O)[C@H](C)NC(=O)[C@H](CO)NC(=O)[C@@H]2CCCN2C(=O)[C@H](CO)NC(=O)CNC1=O (cyclo(AQDEASPLVLGSPS)) | – | 27.4 | – | – | – | inactive | inactive
5 | CC(C)[C@@H]1NC(=O)CNC(=O)[C@@H]2CCCN2C(=O)[C@H](CO)NC(=O)[C@H](C)NC(=O)[C@H](CCC(=O)O)NC(=O)[C@H](CC(=O)O)NC(=O)[C@H](CCC(N)=O)NC(=O)[C@H](C)NC(=O)[C@H](CS)NC(=O)[C@@H]2CCCN2C(=O)[C@H](CO)NC(=O)CNC(=O)[C@H](C(C)C)NC1=O (cyclo(AQDEASPGVVGSPC)) | 5.3 | 36.4 | 12.3 | – | – | – | –
6 | H-AVGSPSAQDEASPL-NH2 | 3.9 | 31.2 | 6.2 | – | – | – | –
7 | CC(C)[C@@H]1NC(=O)CNC(=O)[C@@H]2CCCN2C(=O)[C@H](CO)NC(=O)[C@H](C)NC(=O)[C@H](CCC(=O)O)NC(=O)[C@H](CC(=O)O)NC(=O)[C@H](CCC(N)=O)NC(=O)[C@H](C)NC(=O)[C@H](CC(=O)O)NC(=O)[C@@H]2CCCN2C(=O)[C@H](CO)NC(=O)CNC(=O)[C@H](C(C)C)NC1=O (cyclo(AQDEASPGVVGSPD)) | 17.6 | 49.5 | 2.2 | – | – | – | –
8 | H-VVGSASAQDEASPL-NH2 | 3.6 | 24.4 | 7.5 | Active | – | – | –
9 | CC(C)C[C@@H]1NC(=O)[C@@H]2CCCN2C(=O)[C@H](CO)NC(=O)C(C)(C)NC(=O)[C@H](CCC(=O)O)NC(=O)[C@H](CC(=O)O)NC(=O)[C@H](CCC(N)=O)NC(=O)[C@H](C)NC(=O)[C@H](CO)NC(=O)[C@@H]2CCCN2C(=O)[C@H](CO)NC(=O)CNC(=O)[C@H](C(C)C)NC(=O)[C@H](C(C)C)NC1=O (cyclo(AQDE[Aib]SPLVVGSPS)) | 5.2 | 35 | – | – | – | – | inactive
10 | H-VVGSPSAQDEAAPL-NH2 | 11.3 | 28.6 | 21.7 | Active | – | – | –
11 | H-VVGSPSAQDAASPL-NH2 | – | 20.7 | 17.6 | Active | – | inactive | –
12 | CC(C)C[C@@H]1NC(=O)[C@H](C(C)C)NC(=O)[C@H](C)NC(=O)[C@@H]2CCCN2C(=O)[C@H](CO)NC(=O)[C@H](C)NC(=O)[C@H](CCC(=O)O)NC(=O)[C@H](CC(=O)O)NC(=O)[C@H](CCC(N)=O)NC(=O)[C@H](C)NC(=O)[C@H](CO)NC(=O)[C@@H]2CCCN2C(=O)[C@H](CO)NC(=O)CNC1=O (cyclo(AQDEASPAVLGSPS)) | 20.7 | 42.2 | 1.6 | – | – | – | –
13 | CC(C)[C@@H]1NC(=O)CNC(=O)[C@@H]2CCCN2C(=O)[C@H](CO)NC(=O)[C@H](C)NC(=O)[C@H](CCC(=O)O)NC(=O)[C@H](CC(=O)O)NC(=O)[C@H](CCC(N)=O)NC(=O)[C@H](C)NC(=O)CNC(=O)[C@@H]2CCCN2C(=O)[C@H](CO)NC(=O)CNC(=O)[C@H](C(C)C)NC1=O (cyclo(AQDEASPGVVGSPG)) | 5.3 | 2.6 | 8.5 | – | – | – | –
14 | CC(C)C[C@@H]1NC(=O)[C@@H]2CCCN2C(=O)[C@H](CO)NC(=O)[C@H](C)NC(=O)[C@H](CCC(=O)O)NC(=O)[C@H](CC(=O)O)NC(=O)[C@H](CCC(N)=O)NC(=O)[C@H](C)NC(=O)[C@H](CO)NC(=O)[C@@H]2CCCN2C(=O)[C@H](CO)NC(=O)CNC(=O)[C@H](C)NC(=O)[C@H](C(C)C)NC1=O (cyclo(AGSPSAQDEASPLV)) | 11.5 | 44 | 0.9 | – | – | – | –
15 | H-VVGSPAAQDEASPL-NH2 | 33.4 | 55.3 | 34.6 | – | Active | – | –
16 | H-VAGSPSAQDEASPL-NH2 | 26.4 | 60 | 28 | Active | Active | – | –
17 | CC(C)C[C@@H]1NC(=O)[C@@H]2CCCN2C(=O)[C@H](CO)NC(=O)[C@H](C)NC(=O)[C@H](CCC(=O)O)NC(=O)[C@H](CC(=O)O)NC(=O)[C@H](CCC(N)=O)NC(=O)[C@H](C)NC(=O)[C@H]([C@@H](C)O)NC(=O)[C@@H]2CCCN2C(=O)[C@H](CO)NC(=O)CNC(=O)[C@H](C(C)C)NC(=O)[C@H](C(C)C)NC1=O (cyclo(AQDEASPLVVGSPT)) | 9.9 | 27 | 13.9 | – | – | – | –
